# Biological target: T1, human PAD4 (Homo sapiens, UniProt Q9UM07)
# T1 construct: human PAD4 (NM_012387), A2-P663, was PCR amplified; His-SUMO (N, cleaved yes); made in house; host or cells: E. coli BL21(DE3)
# Test: In vitro PAD4 BAEE biochemical assay
# Settings: BAEE substrate 3 mM, 5 nM PAD4, 2 mM calcium chloride; geometric mean of multiple experiments
# Method in brief: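 Fluorescence read-out (ex 405/em 535 nm) of isoindole formed from ammonia, o-phthalaldehyde and DTT after EDTA stop. Reaction: 5 nM PAD4, 2 mM CaCl2, 3 mM BAEE, 2 h, 25 °C, after 30 min enzyme–compound preincubation. Normalised to BB-Cl-Amidine (50 µM) and DMSO controls.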
# T1 sequence (Q9UM07 2-663): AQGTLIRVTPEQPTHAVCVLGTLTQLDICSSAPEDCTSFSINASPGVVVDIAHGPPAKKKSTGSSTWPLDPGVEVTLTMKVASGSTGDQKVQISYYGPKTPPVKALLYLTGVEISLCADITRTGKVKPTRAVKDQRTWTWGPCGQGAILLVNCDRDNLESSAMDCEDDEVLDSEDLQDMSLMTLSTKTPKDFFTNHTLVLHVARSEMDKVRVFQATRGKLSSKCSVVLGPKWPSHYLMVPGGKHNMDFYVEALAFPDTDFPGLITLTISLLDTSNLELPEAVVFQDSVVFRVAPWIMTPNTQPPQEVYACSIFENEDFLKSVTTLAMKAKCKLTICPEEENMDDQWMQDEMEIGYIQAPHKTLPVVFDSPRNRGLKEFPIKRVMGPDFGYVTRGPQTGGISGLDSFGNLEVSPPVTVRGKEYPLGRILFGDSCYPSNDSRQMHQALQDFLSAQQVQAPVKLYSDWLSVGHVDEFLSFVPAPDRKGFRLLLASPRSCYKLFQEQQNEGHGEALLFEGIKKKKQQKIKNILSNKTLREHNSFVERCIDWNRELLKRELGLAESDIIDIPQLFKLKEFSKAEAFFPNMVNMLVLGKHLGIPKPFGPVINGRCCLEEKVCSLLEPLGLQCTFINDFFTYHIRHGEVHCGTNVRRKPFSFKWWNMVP
row,SMILES,IC50 [nM]
1,"COc1cc(C(=O)N[C@H]2CNCC[C@@H]2F)cc2nc(-c3cc4ccc5nc4n3CCC/C=C/c3c(noc3C)C(=O)N[C@@H]5C)n(C)c12 [Example 399, 2-[(2~{R},10~{E})-2,8-dimethyl-4-oxo-7-oxa-3,6,15,21-tetrazatetracyclo[13.5.2.0^{5,9}.0^{18,22}]docosa-1(21),5,8,10,16,18(22),19-heptaen-16-yl]-~{N}-[(3~{S},4~{S})-4-fluoro-3-piperidyl]-7-methoxy-1-methyl-benzimidazole-5-carboxamide]",86
2,"COc1cc(C(=O)N[C@H]2CNCC[C@@H]2F)cc2nc(-c3cc4ccc5nc4n3CCCCCCC3(CC(F)(F)C3)C(=O)N[C@@H]5C)n(C)c12 [Example 400, 2-[(11~{R})-1′,1′-difluoro-11-methyl-9-oxo-spiro[1,10,19-triazatricyclo[10.5.2.0^{15,18}]nonadeca-12(19),13,15(18),16-tetraene-8,3′-cyclobutane]-17-yl]-~{N}-[(3~{S},4~{S})-4-fluoro-3-piperidyl]-7-methoxy-1-methyl-benzimidazole-5-carboxamide]",150
3,"C[C@H]1NC(=O)c2cccnc2CCCCCn2c(-c3nc4cc(C(=O)N[C@H]5CNCC[C@@H]5F)c(F)cc4n3C)cc3ccc1nc32 [Example 401, 6-fluoro-~{N}-[(3~{S},4~{S})-4-fluoro-3-piperidyl]-1-methyl-2-[(2~{R})-2-methyl-4-oxo-3,9,16,22-tetrazatetracyclo[14.5.2.0^{5,10).0^{19,23}]tricosa-1(22),5(10),6,8,17,19(23),20-heptaen-17-yl]benzimidazole-5-carboxamide]",90
4,"C[C@H]1NC(=O)C2(CCCCCCn3c(-c4nc5cc(C(=O)N[C@H]6CNCC[C@@H]6F)c(F)cc5n4C)cc4ccc1nc43)CC(F)(F)C2 [Example 402, 2-[(11~{R})-1′,1′-difluoro-11-methyl-9-oxo-spiro[1,10,19-triazatricyclo[10.5.2.0^{15,18}]nonadeca-12(19),13,15(18),16-tetraene-8,3′-cyclobutane]-17-yl]-6-fluoro-~{N}-[(3~{S},4~{S})-4-fluoro-3-piperidyl]-1-methyl-benzimidazole-5-carboxamide]",91
5,"COC1(Cn2c(-c3cc4ccc5nc4n3CCCCC[C@@H]3C[C@H]3C(=O)N[C@@H]5C)nc3cc(C(=O)N[C@H]4CNCC[C@@H]4F)c(F)cc32)CC1 [Example 404, 6-fluoro-~{N}-[(3~{S},4~{S})-4-fluoro-3-piperidyl]-1-[(1-methoxycyclopropyl)methyl]-2-[(2~{R},5~{R},7~{R})-2-methyl-4-oxo-3,13,19-triazatetracyclo[11.5.2.0^{5,7}.0^{16,20}]icosa-1(19),14,16(20),17-tetraen-14-yl]benzimidazole-5-carboxamide]",83
6,"C[C@H]1NC(=O)[C@@H]2C[C@H]2CCCCCn2c(-c3nc4cc(C(=O)N[C@H]5CNCC[C@@H]5F)c(F)cc4n3CC3(F)CC3)cc3ccc1nc32 [Example 405, 6-fluoro-1-[(1-fluorocyclopropyl)methyl]-~{N}-[(3~{S},4~{S})-4-fluoro-3-piperidyl]-2-[(2~{R},5~{R},7~{R})-2-methyl-4-oxo-3,13,19-triazatetracyclo[11.5.2.0^{5,7}.0^{16,20}]icosa-1(19),14,16(20),17-tetraen-14-yl]benzimidazole-5-carboxamide]",27
7,"C[C@H]1NC(=O)[C@@H]2C[C@H]2CCCCCn2c(-c3nc4cc(C(=O)N[C@H]5CNCC[C@@H]5F)c(F)cc4n3CC3(C#N)CC3)cc3ccc1nc32 [Example 406, 1-[(1-cyanocyclopropyl)methyl]-6-fluoro-~{N}-[(3~{S},4~{S})-4-fluoro-3-piperidyl]-2-[(2~{R},5~{R},7~{R})-2-methyl-4-oxo-3,13,19-triazatetracyclo[11.5.2.0^{5,7}.0^{16,20}]icosa-1(19),14,16(20),17-tetraen-14-yl]benzimidazole-5-carboxamide]",22
8,"COc1cc(C(=O)N2CC[C@@H](OC)[C@@H](N)C2)cc2nc(-c3cc4ccc5nc4n3CCCCCc3nc(Cl)ccc3C(=O)N[C@@H]5C)n(C)c12 [Example 407, (2~{R})-17-[5-[(3~{S},4~{R})-3-amino-4-methoxy-piperidine-1-carbonyl]-7-methoxy-1-methyl-benzimidazol-2-yl]-8-chloro-2-methyl-3,9,16,22-tetrazatetracyclo[14.5.2.0^{5,10).0^{19,23}] tricosa-1(22),5(10),6,8,17,19(23),20-heptaen-4-one]",70
9,"COc1cc(C(=O)N2CCC[C@@H](N)[C@H]2CO)cc2nc(-c3cc4ccc5nc4n3CCCCC[C@@H]3C[C@H]3C(=O)N[C@@H]5C)n(C)c12 [Example 408, (2~{R},5~{R},7~{R})-14-[5-[(2~{S},3~{R})-3-amino-2-(hydroxymethyl)piperidine-1-carbonyl]-7-methoxy-1-methyl-benzimidazol-2-yl]-2-methyl-3,13,19-triazatetracyclo[11.5.2.0^{5,7}.0^{16,20}] icosa-1(19),14,16(20),17-tetraen-4-one]",255
10,"COc1cc(C(=O)N2CC[C@@H](OC)[C@@H](N)C2)cc2nc(-c3cc4ccc5nc4n3CCCCCc3ncccc3C(=O)N[C@@H]5C)n(C)c12 [Example 409, (2~{R})-17-[5-[(3~{S},4~{R})-3-amino-4-methoxy-piperidine-1-carbonyl]-7-methoxy-1-methyl-benzimidazol-2-yl]-2-methyl-3,9,16,22-tetrazatetracyclo[14.5.2.0^{5,10}.0^{19,23}] tricosa-1(22),5(10),6,8,17,19(23),20-heptaen-4-one]",83
11,"COC[C@@H]1[C@H](N)CCCN1C(=O)c1cc(OC)c2c(c1)nc(-c1cc3ccc4nc3n1CCCCC[C@@H]1C[C@H]1C(=O)N[C@@H]4C)n2C [Example 411, (2~{R},5~{R},7~{R})-14-[5-[(2~{S},3~{R})-3-amino-2-(methoxymethyl)piperidine-1-carbonyl]-7-methoxy-1-methyl-benzimidazol-2-yl]-2-methyl-3,13,19-triazatetracyclo[11.5.2.0^{5,7}.0^{16,20}] icosa-1(19),14,16(20),17-tetraen-4-one]",398
12,"C[C@H]1NC(=O)[C@@H]2C[C@H]2CCCCCn2c(-c3nc4cc(C(=O)N[C@H]5CNCC[C@@H]5F)c(F)cc4n3[C@H]3C[C@@H]3C)cc3ccc1nc32 [Example 413, 6-fluoro-˜{N}-[(3˜{S},4˜{S})-4-fluoro-3-piperidyl]-1-[(1˜{S},2˜{S})-2-methylcyclopropyl]-2-[(2˜{R},5˜{R},7˜{R})-2-methyl-4-oxo-3,13,19-triazatetracyclo[11.5.2.0^{5,7}.0^{16,20}]icosa-1(19),14,16(20),17-tetraen-14-yl]benzimidazole-5-carboxamide]",37
13,"COc1cc(C(=O)N2CC[C@@H](OC)[C@@H](N)C2)cc2nc(-c3cc4ccc5nc4n3CCCCCc3nc4ccccc4nc3C(=O)N[C@@H]5C)n(C)c12 [Example 414, (2~{R})-21-[5-[(3~{S},4~{R})-3-amino-4-methoxy-piperidine-1-carbonyl]-7-methoxy-1-methyl-benzimidazol-2-yl]-2-methyl-3,6,13,20,26-pentazapentacyclo[18.5.2.0^{5,14).0^{7, 12}.0^{23,27}]heptacosa-1(26),5(14),6,8,10,12,21,23(27),24-nonaen-4-one]",125

# Source: patent publication US11976083B2, “Inhibitors of peptidylarginine deiminases” (Gilead Sciences, Inc., priority 2020, dated 2024)
